Reference: patent US8748173B2 (priority 1998, dated 2014)
Where “and” joins values, the source holds several entries; their conditions need not be identical. Identical values can stand only once.

Tested on: Bacillus subtilis spores
Type: binding

Row | Substance | concentration at which the peptide stained spores | binding to B. subtilis spores
1 | Peptide 7183 consensus (RFTISRDNAKNTLYLQMSC; Peptide 7183 artificial peptide corresponding to consensus sequence in 7183 VH gene family.) [reference compound] | 200 μg/ml and 100 μM | 
2 | Peptide Anti-spore (RFTISRDNPKNTLFLQMTC; Peptide Anti-spore artificial peptide corresponding to consensus sequence in the framework 3 region of antibodies against Bacillus subtilis spores.) | 2 μg/ml and 1 μM | bind strongly and specifically
